Laboratory results published in PMC7269146, “Jingzhaotoxin-X, a gating modifier of Kv4.2 and Kv4.3 potassium channels purified from the venom of the Chinese tarantula Chilobrachys jingzhao” (The Journal of Venomous Animals and Toxins Including …, 2020).
“Also recorded” adds a separate entry of the source. Where a SMILES comes first, the peptide text is derived from it. Bridges are numbered along the chain shown (N, C = ends).

Experiments:
[1] = test system: Nav1.5; assay: voltage-clamp, Nav1.5 currents; format: cell-based, human; conditions: 1 μM; n = 3
Description: (§1) Rat cDNA genes encoding Kv4.2 (Accession: NM_031730.2) and Kv4.3 (Accession: AB003587.1) were subcloned to vector pcDNA3.1. In addition, human cDNA genes encoding Nav1.7 (Accession: DQ857292.1) and Nav1.5 (Accession: AB158469.2) were subcloned to vectors pcDNA3.1-mod and pcDNA3.1, separately. Then, Kv4.2, Kv4.3, Nav1.5 and Nav1.7 constructs were transiently transfected into the human embryonic kidney 293t (HEK293t) cells using lipofectamine 2000 (Invitrogen, USA) in accordance with manufacturer protocols. Thereafter, HEK293 cells were inoculated within Dulbecco’s modified Eagle’s medium (DMEM) containing 10% fetal bovine serum (FBS) at 5% CO2 and 37°C. The Kv4.3 channel and the Kv4.2 counterpart were then transfected in the absence of β subunit. Subsequently, cells were incubated with a DNA-lipofectamine mixture (one reporter plasmid for green fluorescence protein and channel constructs) for 4-6 h, and were washed with the fresh medium.
(§2) An EPC-10 patch-clamp amplifier (HEKA, Germany) was employed to record the potassium currents at the configuration of whole-cell patch-clamp under an ambient temperature of 22-25°C. The resistance was 2.0-3.0 MΩ when the recording pipette contained a full volume of internal solution (supplemented with 140 mM KCl, 10 mM HEPES, 2.5 mM MgCl2, 5 mM ATP and 11 mM EGTA). […]

[2] = test system: Nav1.7; assay: voltage-clamp, Nav1.7 currents; format: cell-based, human; conditions: 1 μM; n = 3
Description: as §1, §2

[3] = molecular target: T1, Kv4.3 (Rattus norvegicus, UniProt Q62897); assay: microelectrode voltage-clamp, Xenopus laevis oocytes, Kv4.3; format: cell-based; conditions: +20 mV from -90 mV, n = 5, read-out: inhibition of Kv4.3 current
T1 construct: expressed in transfected cells; host or cells: HEK293t
T1 sequence (Q62897 1-655): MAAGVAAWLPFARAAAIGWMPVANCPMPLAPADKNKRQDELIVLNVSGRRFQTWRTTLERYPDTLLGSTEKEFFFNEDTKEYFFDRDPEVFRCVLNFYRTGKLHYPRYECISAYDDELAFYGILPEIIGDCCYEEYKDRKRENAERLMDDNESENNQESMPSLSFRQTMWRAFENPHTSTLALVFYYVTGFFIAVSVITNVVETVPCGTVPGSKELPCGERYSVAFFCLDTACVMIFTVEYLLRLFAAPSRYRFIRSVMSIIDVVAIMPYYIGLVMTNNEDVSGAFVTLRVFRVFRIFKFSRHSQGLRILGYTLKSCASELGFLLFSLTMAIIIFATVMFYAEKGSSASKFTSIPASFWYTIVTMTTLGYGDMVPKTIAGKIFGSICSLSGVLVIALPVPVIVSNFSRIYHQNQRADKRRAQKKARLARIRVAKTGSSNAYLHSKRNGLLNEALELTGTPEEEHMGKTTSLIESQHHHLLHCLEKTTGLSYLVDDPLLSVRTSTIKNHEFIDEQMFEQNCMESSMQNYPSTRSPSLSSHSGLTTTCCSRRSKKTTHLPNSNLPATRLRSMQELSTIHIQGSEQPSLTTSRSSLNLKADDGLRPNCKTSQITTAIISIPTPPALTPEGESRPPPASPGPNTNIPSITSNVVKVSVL
Description: as §1
Briefly, plasmids were linearized, and transcription was carried out according to the standardized protocol. Afterwards, the capped cRNAs that encoded the related ion channels were prepared. […]

CC(C)C[C@@H]1NC(=O)[C@H](CCCCN)NC(=O)[C@H](Cc2ccc(O)cc2)NC(=O)[C@@H]2CSSC[C@@H]3NC(=O)[C@H](Cc4ccc(O)cc4)NC(=O)[C@H](Cc4ccccc4)NC(=O)CNC(=O)[C@H](C)NC(=O)[C@H](CSSC[C@H](NC(=O)[C@@H](N)CC(C)C)C(=O)N[C@@H](CO)C(=O)N[C@@H](CCCNC(=N)N)C(=O)N[C@@H](CCC(=O)O)C(=O)NCC(=O)N[C@@H](CCC(=O)O)C(=O)N[C@@H](Cc4ccccc4)C(=O)N2)NC(=O)[C@H](CSSC[C@@H](C(=O)N[C@@H](Cc2ccc(O)cc2)C(=O)N[C@@H](CCCNC(=N)N)C(=O)N[C@@H](CC(N)=O)C(=O)O)NC(=O)[C@H](Cc2c[nH]cn2)NC(=O)[C@H](CC(C)C)NC(=O)[C@H](C(C)C)NC(=O)[C@H](Cc2ccccc2)NC(=O)[C@H](C)NC(=O)[C@H](CCCCN)NC3=O)NC(=O)[C@H](CCCCN)NC(=O)[C@H](CCCNC(=N)N)NC1=O [JZTX-X, Jingzhaotoxin-X] (H-LCSREGEFCYKLRKCCAGFYCKAFVLHCYRN-OH; disulfide 2-16, 9-21, 15-28; N-terminus assumed)
effect on Nav1.5 channel [1]: negligible effect; also recorded: did not affect the currents | effect on Nav1.7 channel [2]: negligible effect; also recorded: did not affect the currents | inhibition at 1 µM [3]: 72.4 ± 4.8%
